PubChem BioAssay AID1918947 (Molecular Pharmacology Branch, DTP, NCI, 2023)

System: A498 complex spheroid viability
Assay: Anticancer human tumor A498 cell line growth inhibition;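 also: spheroids exposed to agents for seven days before readout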;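 as to viability, T/C: 100% = DMSO vehicle-treated spheroids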
Conditions: for IC50: curve of first compound; for viability, T/C: stronger effect = lower value
Source text: Multicellular complex tumor spheroid response to LSD1 Inhibitor Iadademstat in combination with a variety of drugs and investigational agents in selected tumor cell lines
The current study was undertaken to assess response to LSD1 inhibitors in combination with standard-of-care drugs and investigational agents in solid tumor complex spheroid models as well as in the K-562 leukemia. Complex spheroids include a stromal component modeled by human endothelial cells (HUVEC) and fibroblasts modeled by human mesenchymal stem cells (MSCs). The concentration ranges selected for each drug and investigational agent were based upon clinically achievable concentrations if the clinical Cmax of the agent was known.
Compounds. The drugs and investigational agents used in this study are listed on Table 1. All of the agents used, including staurosporine (NSC755774) and gemcitabine (NSC613327), were obtained from the Developmental Therapeutics Program, NCI. FDA-approved anticancer drugs are available from the NCI at http://dtp.nci.nih.gov/branches/dscb/oncology_drugset_explanation.html. Drugs and investigational agents were >95% pure by proton nuclear magnetic resonance (NMR) and liquid chromatography/mass spectrometry (LC/MS). Stock solutions were prepared at 400x in DMSO, stored at -70 degrees C, and diluted in fresh medium prior to their use. The final concentration of DMSO in cell culture wells never exceeded 0.25% (v/v). The FDA-approved anticancer drug set is available from the Developmental Therapeutics Program at https://dtp.cancer.gov/organization/dscb/obtaining/available_plates.htm. All drugs and investigational agents were tested over a range starting from a high concentration at or near the clinical Cmax and decreasing in half-log increments. If the clinical Cmax for an agent had not been determined, the highest concentration tested was 10 microM.
Cell Lines. The patient-derived cancer cell (PDC) lines: 292921-168-R-J2-PDC, K24384-001-R-PDC, and 521955-158-R2-J5-PDC pancreatic carcinomas, 556581-035-R-J1 ovarian carcinoma, 324938-238-R-J1-PDC, 855422-203-R-J1-PDC and 883617-216-R-J1-PDC urothelial bladder carcinomas, 743489-274-T-PDC renal cell carcinoma, 138582-R-J1 Merkel cell tumor, K60290-347-R-J1 and K57222-313-R-J1-PDC glioblastomas, 653999-131-R-J2-PDC, LG0703-F948-PDC, and 349418-098-R-PDC non-small cell lung carcinomas, 885512-296-R-J2-PDC, 171881-019-R-J1-PDC breast carcinomas and 186277-243-T-J2-PDC and 233499-124-R-J2-PDC colon carcinomas were obtained from the NCI Patient-Derived Models Repository (PDMR, https://pdmr.cancer.gov). The established cell lines NCI/ADR-RES (RRID:CVCL_14520 and OVCAR-5 (RRID:CVCL_1628) ovarian carcinomas, 786-O (RRID:CVCL_1051) and A498 (RRID:CVCL_A498) renal cell carcinoma, NCI-H211 (ATCC, cat. CRL-5824; RRID:CVCL_1529), NCI-H196 (ATCC, cat. CRL-5823, RRID:CVCL_1509), SW 1271 (ATCC, cat. CRL-2177, RRID:CVCL_1716) and NCI-H1876 (ATCC, cat. CRL-5902, RRID:CVCL_1503) small cell lung carcinomas, MDA-MB-231 (RRID:CVCL_0062) and MDA-MB-468 (RRID:CVCL_0419)breast carcinomas (10-12). Pooled donor human umbilical vein endothelial cells (HUVEC, Lonza, cat. CC-2519) and human mesenchymal stem cells (hMSC, Lonza, cat. PT-2501) were purchased from Lonza (Walkersville, MD).
Cell Culture. All cells were maintained in an incubator at 37 degrees C and 5% CO2 with 95% humidity. The PDC lines were cultured according to standard operating procedures established by the NCI PDMR (https://pdmr.cancer.gov). Briefly all PDCs were thawed and cultured in Matrigel-coated flasks prepared with a working solution of 1X Ham's F-12 nutrient mix, without supplementation (Invitrogen, Waltham, MA, cat. 11765054), 100 U/mL penicillin-streptomycin (Invitrogen, cat. 15140122), and 2.5% Matrigel (Corning Inc., Corning, NY, cat. 354248) for the first three passages. […]

[1] = second compound 0.1 µM, first compound 0.00949 µM
[2] = second compound 0.1 µM, first compound 0.03 µM
[3] = second compound 0.1 µM, first compound 0.0949 µM
[4] = second compound 0.1 µM, first compound 0.3 µM
[5] = second compound 0.316 µM, first compound 0.00949 µM
[6] = second compound 0.316 µM, first compound 0.03 µM
[7] = second compound 0.316 µM, first compound 0.0949 µM
[8] = second compound 0.316 µM, first compound 0.3 µM
[9] = second compound 1 µM, first compound 0.00949 µM
[10] = second compound 1 µM, first compound 0.03 µM
[11] = second compound 1 µM, first compound 0.0949 µM
[12] = second compound 1 µM, first compound 0.3 µM
[13] = second compound 3.16 µM, first compound 0.00949 µM
[14] = second compound 3.16 µM, first compound 0.03 µM
[15] = second compound 3.16 µM, first compound 0.0949 µM
[16] = second compound 3.16 µM, first compound 0.3 µM
[17] = second compound 10 µM, first compound 0.00949 µM
[18] = second compound 10 µM, first compound 0.03 µM
[19] = second compound 10 µM, first compound 0.0949 µM
[20] = second compound 10 µM, first compound 0.3 µM

## Nc1ncn(C2CC(O)C(CO)S2)c(=O)n1 (stereo not given) + NC1CCC(NC2CC2c2ccccc2)CC1
Second compound 0.1 µM
  IC50: 154 nM
Second compound 0.316 µM
  IC50: 146 nM
Second compound 1 µM
  IC50: 113 nM
Second compound 3.16 µM
  IC50: 74 nM
Second compound 10 µM
  IC50: 48.4 nM
Second compound 0.1 µM, first compound 0.000949 µM
  viability, T/C: 101%
Second compound 0.1 µM, first compound 0.003 µM
  viability, T/C: 92.5%
[1]
  viability, T/C: 88.6%
[2]
  viability, T/C: 87.5%
[3]
  viability, T/C: 62.1%
[4]
  viability, T/C: 31.5%
Second compound 0.316 µM, first compound 0.000949 µM
  viability, T/C: 95.1%
Second compound 0.316 µM, first compound 0.003 µM
  viability, T/C: 98.7%
[5]
  viability, T/C: 98%
[6]
  viability, T/C: 95.2%
[7]
  viability, T/C: 58.4%
[8]
  viability, T/C: 36%
Second compound 1 µM, first compound 0.000949 µM
  viability, T/C: 90.4%
Second compound 1 µM, first compound 0.003 µM
  viability, T/C: 94.9%
[9]
  viability, T/C: 91.6%
[10]
  viability, T/C: 81.7%
[11]
  viability, T/C: 54.4%
[12]
  viability, T/C: 26.2%
Second compound 3.16 µM, first compound 0.000949 µM
  viability, T/C: 85.1%
Second compound 3.16 µM, first compound 0.003 µM
  viability, T/C: 83.5%
[13]
  viability, T/C: 90.6%
[14]
  viability, T/C: 75.8%
[15]
  viability, T/C: 43%
[16]
  viability, T/C: 23.7%
Second compound 10 µM, first compound 0.000949 µM
  viability, T/C: 74.5%
Second compound 10 µM, first compound 0.003 µM
  viability, T/C: 81.7%
[17]
  viability, T/C: 76.1%
[18]
  viability, T/C: 67.2%
[19]
  viability, T/C: 25.9%
[20]
  viability, T/C: 14.3%

## O=C(c1cc(Cc2n[nH]c(=O)c3ccccc23)ccc1F)N1CCN(C(=O)C2CC2)CC1 + NC1CC1c1ccc(-c2cccc(O)c2)cc1
Second compound 0.1 µM
  IC50: > 10000 nM
Second compound 0.316 µM
  IC50: > 10000 nM
Second compound 1 µM
  IC50: > 10000 nM
Second compound 3.16 µM
  IC50: > 10000 nM
Second compound 10 µM
  IC50: > 10000 nM
Second compound 0.1 µM, first compound 0.0316 µM
  viability, T/C: 107%
Second compound 0.1 µM, first compound 0.1 µM
  viability, T/C: 111%
Second compound 0.1 µM, first compound 0.316 µM
  viability, T/C: 105%
Second compound 0.1 µM, first compound 1 µM
  viability, T/C: 105%
Second compound 0.1 µM, first compound 3.16 µM
  viability, T/C: 107%
Second compound 0.1 µM, first compound 10 µM
  viability, T/C: 91.5%
Second compound 0.316 µM, first compound 0.0316 µM
  viability, T/C: 109%
Second compound 0.316 µM, first compound 0.1 µM
  viability, T/C: 113%
Second compound 0.316 µM, first compound 0.316 µM
  viability, T/C: 111%
Second compound 0.316 µM, first compound 1 µM
  viability, T/C: 108%
Second compound 0.316 µM, first compound 3.16 µM
  viability, T/C: 102%
Second compound 0.316 µM, first compound 10 µM
  viability, T/C: 97.8%
Second compound 1 µM, first compound 0.0316 µM
  viability, T/C: 107%
Second compound 1 µM, first compound 0.1 µM
  viability, T/C: 110%
Second compound 1 µM, first compound 0.316 µM
  viability, T/C: 105%
Second compound 1 µM, first compound 1 µM
  viability, T/C: 99.1%
Second compound 1 µM, first compound 3.16 µM
  viability, T/C: 97.6%
Second compound 1 µM, first compound 10 µM
  viability, T/C: 96%
Second compound 3.16 µM, first compound 0.0316 µM
  viability, T/C: 101%
Second compound 3.16 µM, first compound 0.1 µM
  viability, T/C: 105%
Second compound 3.16 µM, first compound 0.316 µM
  viability, T/C: 104%
Second compound 3.16 µM, first compound 1 µM
  viability, T/C: 103%
Second compound 3.16 µM, first compound 3.16 µM
  viability, T/C: 95.2%
Second compound 3.16 µM, first compound 10 µM
  viability, T/C: 91%
Second compound 10 µM, first compound 0.0316 µM
  viability, T/C: 102%
Second compound 10 µM, first compound 0.1 µM
  viability, T/C: 105%
Second compound 10 µM, first compound 0.316 µM
  viability, T/C: 107%
Second compound 10 µM, first compound 1 µM
  viability, T/C: 101%
Second compound 10 µM, first compound 3.16 µM
  viability, T/C: 102%
Second compound 10 µM, first compound 10 µM
  viability, T/C: 88.4%

## O=C(C=Cc1cccc(S(=O)(=O)Nc2ccccc2)c1)NO + NC1CCC(NC2CC2c2ccccc2)CC1
Second compound 0.1 µM
  IC50: 266 nM
Second compound 0.316 µM
  IC50: 253 nM
Second compound 1 µM
  IC50: 250 nM
Second compound 3.16 µM
  IC50: 168 nM
Second compound 10 µM
  IC50: 131 nM
[1]
  viability, T/C: 81.5%
[2]
  viability, T/C: 82.3%
[3]
  viability, T/C: 67.1%
[4]
  viability, T/C: 43.2%
Second compound 0.1 µM, first compound 0.949 µM
  viability, T/C: 33.6%
Second compound 0.1 µM, first compound 3 µM
  viability, T/C: 12.9%
[5]
  viability, T/C: 88%
[6]
  viability, T/C: 87.1%
[7]
  viability, T/C: 69.3%
[8]
  viability, T/C: 41.2%
Second compound 0.316 µM, first compound 0.949 µM
  viability, T/C: 33.1%
Second compound 0.316 µM, first compound 3 µM
  viability, T/C: 11.7%
[9]
  viability, T/C: 79.1%
[10]
  viability, T/C: 78%
[11]
  viability, T/C: 63.1%
[12]
  viability, T/C: 46.8%
Second compound 1 µM, first compound 0.949 µM
  viability, T/C: 28.1%
Second compound 1 µM, first compound 3 µM
  viability, T/C: 10.4%
[13]
  viability, T/C: 79.9%
[14]
  viability, T/C: 72.7%
[15]
  viability, T/C: 60.4%
[16]
  viability, T/C: 38.8%
Second compound 3.16 µM, first compound 0.949 µM
  viability, T/C: 23.2%
Second compound 3.16 µM, first compound 3 µM
  viability, T/C: 8.14%
[17]
  viability, T/C: 70.4%
[18]
  viability, T/C: 64.6%
[19]
  viability, T/C: 56.5%
[20]
  viability, T/C: 36%
Second compound 10 µM, first compound 0.949 µM
  viability, T/C: 22.9%
Second compound 10 µM, first compound 3 µM
  viability, T/C: 7.67%
